Experimental data published in PubChem BioAssay AID330 (DTP/NCI, 2004).
Several values for one entry are separate records, joined by “and”; a condition that tells them apart may be missing. Equal values may be shown once. Toxic doses and inconclusive results are not listed.

Test system: P388 leukemia ip, CD2F1 mice, survival T/C
Experiment: NCI In Vivo Anticancer Drug Screen. Data for tumor model P388 Leukemia (intraperitoneal) in CD2F1 (CDF1) mice
Conditions: endpoint: median survival time, higher = longer survival
Method in brief: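 Mice carrying the transplanted tumor received test compound or vehicle. Survival was recorded in each group, and the value is the treated-group measurement divided by that of the vehicle-treated control group.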

[1] = dose: 60.0 mg/kg/injection, schedule: Q01DX005 (ip), vehicle: saline with Tween-80
[2] = dose: 120.0 mg/kg/injection, schedule: Q01DX005 (ip), vehicle: saline with Tween-80
[3] = dose: 240.0 mg/kg/injection, schedule: Q01DX005 (ip), vehicle: saline with Tween-80
[4] = dose: 50.0 mg/kg/injection, schedule: Q01DX005 (ip), vehicle: Klucel (hydroxypropylcellulose) (HPC)
[5] = dose: 100.0 mg/kg/injection, schedule: Q01DX005 (ip), vehicle: Klucel (hydroxypropylcellulose) (HPC)
[6] = dose: 200.0 mg/kg/injection, schedule: Q01DX005 (ip), vehicle: Klucel (hydroxypropylcellulose) (HPC)
[7] = dose: 50.0 mg/kg/injection, schedule: Q01DX009 (ip), vehicle: saline with Tween-80
[8] = dose: 100.0 mg/kg/injection, schedule: Q01DX009 (ip), vehicle: saline with Tween-80
[9] = dose: 200.0 mg/kg/injection, schedule: Q01DX009 (ip), vehicle: saline with Tween-80
[10] = dose: 12.5 mg/kg/injection, schedule: Q01DX005 (ip), vehicle: Klucel (hydroxypropylcellulose) (HPC)
[11] = dose: 12.5 mg/kg/injection, schedule: Q01DX009 (ip), vehicle: saline with Tween-80
[12] = dose: 25.0 mg/kg/injection, schedule: Q01DX009 (ip), vehicle: saline with Tween-80
[13] = dose: 50.0 mg/kg/injection, schedule: Q01DX009 (ip), vehicle: Klucel (hydroxypropylcellulose) (HPC)
[14] = dose: 100.0 mg/kg/injection, schedule: Q01DX009 (ip), vehicle: Klucel (hydroxypropylcellulose) (HPC)
[15] = dose: 200.0 mg/kg/injection, schedule: Q01DX009 (ip), vehicle: Klucel (hydroxypropylcellulose) (HPC)
[16] = dose: 200.0 mg/kg/injection, schedule: Q01DX009 (ip), vehicle: saline
[17] = dose: 200.0 mg/kg/injection, schedule: Q04DX003 (ip), vehicle: saline
[18] = dose: 400.0 mg/kg/injection, schedule: Q04DX003 (ip), vehicle: saline
[19] = dose: 50.0 mg/kg/injection, schedule: Q01DX005 (ip), vehicle: saline
[20] = dose: 100.0 mg/kg/injection, schedule: Q01DX005 (ip), vehicle: saline
[21] = dose: 200.0 mg/kg/injection, schedule: Q01DX005 (ip), vehicle: saline

## Cc1nc2ccccc2nc1N1C(=O)c2ccccc2C1=O
[1]
  T/C: 97 % of control
[2]
  T/C: 99 % of control
[3]
  T/C: 95 % of control

## CC(=O)Nc1c(O)c2ccccc2c2ccccc12
[4]
  T/C: 87 % of control
[5]
  T/C: 92 % of control
[6]
  T/C: 86 % of control

## Cc1cc(O)c(C(c2ccc3c(c2)OCO3)c2c(O)cc(C)[nH]c2=O)c(=O)[nH]1
[7]
  T/C: 92 % of control
[8]
  T/C: 98 % of control
[9]
  T/C: 95 % of control

## O=C1C2CC34CCCN5CC1C1(c6ccccc6NC21CC3)C54 (centres undefined)
[10]
  T/C: 103 % of control
dose: 25.0 mg/kg/injection, schedule: Q01DX005 (ip), vehicle: Klucel (hydroxypropylcellulose) (HPC)
  T/C: 98 % of control
[4]
  T/C: 103 % of control

## CN(C)c1nc(=O)c2c(o1)CC(C)(C)C2
dose: 100.0 mg/kg/injection, schedule: Q04DX003 (ip), vehicle: Klucel (hydroxypropylcellulose) (HPC)
  T/C: 110 % of control
dose: 200.0 mg/kg/injection, schedule: Q04DX003 (ip), vehicle: Klucel (hydroxypropylcellulose) (HPC)
  T/C: 109 % of control
dose: 400.0 mg/kg/injection, schedule: Q04DX003 (ip), vehicle: Klucel (hydroxypropylcellulose) (HPC)
  T/C: 90 % of control

## COc1ccc(C(=O)CCc2cccc(NC(=O)CCl)c2)cc1
[1]
  T/C: 91 % of control
[2]
  T/C: 100 % of control
[3]
  T/C: 102 % of control

## COC(=O)CC1OCC=C2CN3CCC45C6=CC(=O)C(=O)C([N+](=O)[O-])=C6NC4C1C2CC35 (centres undefined)
dose: 7.5 mg/kg/injection, schedule: Q01DX005 (ip), vehicle: suspension in saline
  T/C: 101 % of control
dose: 15.0 mg/kg/injection, schedule: Q01DX005 (ip), vehicle: suspension in saline
  T/C: 100 % of control

## CC1(C)O[C@@H]2C[C@H]3[C@@H]4CCC5=CC(=O)CC[C@]5(C)[C@@]4(F)[C@@H](O)C[C@]3(C)[C@]2(C(=O)CO)O1
[11]
  T/C: 109 % of control
[12]
  T/C: 86 % of control

## Cc1ncc([N+](=O)[O-])n1CCOC(N)=O
[13]
  T/C: 100 % of control
[14]
  T/C: 99 % of control
[15]
  T/C: 99 % of control

## COc1cc2cc[n+](C)cc2cc1OC
dose: 6.25 mg/kg/injection, schedule: Q01DX009 (ip), vehicle: water
  T/C: 90 % of control
dose: 12.5 mg/kg/injection, schedule: Q01DX009 (ip), vehicle: water
  T/C: 102 % of control
dose: 22.0 mg/kg/injection, schedule: Q01DX009 (ip), vehicle: water
  T/C: 121 % of control
dose: 25.0 mg/kg/injection, schedule: Q01DX009 (ip), vehicle: water
  T/C: 107 % of control
dose: 33.0 mg/kg/injection, schedule: Q01DX009 (ip), vehicle: water
  T/C: 115 % of control
dose: 75.0 mg/kg/injection, schedule: Q01DX009 (ip), vehicle: water
  T/C: 121 % of control
dose: 100.0 mg/kg/injection, schedule: Q01DX009 (ip), vehicle: water
  T/C: 123 % of control

## CC1(C)CC(=O)C=C(NCCCCNC2=CC(=O)CC(C)(C)C2)C1
[13]
  T/C: 95 % of control
[14]
  T/C: 95 % of control
[15]
  T/C: 95 % of control

## [Cl][Sn]([c]1cccc2ccccc12)[c]1cccc2ccccc12
dose: 1.56 mg/kg/injection, schedule: Q01DX005 (ip), vehicle: Klucel (hydroxypropylcellulose) (HPC)
  T/C: 101 % of control
dose: 3.12 mg/kg/injection, schedule: Q01DX005 (ip), vehicle: Klucel (hydroxypropylcellulose) (HPC)
  T/C: 120 % of control
dose: 6.25 mg/kg/injection, schedule: Q01DX005 (ip), vehicle: Klucel (hydroxypropylcellulose) (HPC)
  T/C: 124 % of control
[10]
  T/C: 109 % of control

## N#Cc1cccc(/C=C\C(=O)c2ccccc2)c1
dose: 50.0 mg/kg/injection, schedule: Q01DX009 (ip), vehicle: saline
  T/C: 88 % of control
dose: 100.0 mg/kg/injection, schedule: Q01DX009 (ip), vehicle: saline
  T/C: 100 % of control
[16]
  T/C: 92 % of control

## Nc1cc2c(c[n+](CCCCCCCCCBr)c3ccccc23)c2ccccc12
dose: 1.56 mg/kg/injection, schedule: Q04DX003 (ip), vehicle: other
  T/C: 155 % of control
dose: 3.13 mg/kg/injection, schedule: Q04DX003 (ip), vehicle: other
  T/C: 155 % of control
dose: 6.25 mg/kg/injection, schedule: Q04DX003 (ip), vehicle: other
  T/C: 150 % of control

## O=C(CCl)NC(Cc1ccc(O)cc1)C(=O)O (centres undefined)
[12]
  T/C: 104 % of control
[7]
  T/C: 99 % of control
[8]
  T/C: 101 % of control and 105 % of control
[9]
  T/C: 94 % of control
dose: 400.0 mg/kg/injection, schedule: Q01DX009 (ip), vehicle: saline with Tween-80
  T/C: 114 % of control

## COC(=O)C(F)C(N)C(=O)O (centres undefined)
dose: 12.5 mg/kg/injection, schedule: Q04DX003 (ip), vehicle: saline with Tween-80
  T/C: 100 % of control
dose: 25.0 mg/kg/injection, schedule: Q04DX003 (ip), vehicle: saline with Tween-80
  T/C: 101 % of control
dose: 50.0 mg/kg/injection, schedule: Q04DX003 (ip), vehicle: saline with Tween-80
  T/C: 99 % of control
[17]
  T/C: 103 % of control
[18]
  T/C: 90 % of control

## CC(=O)Nc1ccc(N=Nc2c(S(=O)(=O)O)cc3cc(NC(C)=O)ccc3c2O)cc1
[19]
  T/C: 98 % of control and 100 % of control
[20]
  T/C: 100 % of control and 103 % of control
[21]
  T/C: 99 % of control

## COc1ccc(/C=C(/C)[N+](=O)[O-])cc1OC
dose: 22.0 mg/kg/injection, schedule: Q01DX009 (ip), vehicle: saline with Tween-80
  T/C: 109 % of control
dose: 33.0 mg/kg/injection, schedule: Q01DX009 (ip), vehicle: saline with Tween-80
  T/C: 109 % of control
[7]
  T/C: 109 % of control
dose: 75.0 mg/kg/injection, schedule: Q01DX009 (ip), vehicle: saline with Tween-80
  T/C: 118 % of control
[16]
  T/C: 100 % of control

## C/C=C/CC(/C(C)=N\[N+](C)(C)C)c1ccccc1 (centres undefined)
dose: 100.0 mg/kg/injection, schedule: Q04DX003 (ip), vehicle: saline
  T/C: 107 % of control
[17]
  T/C: 97 % of control
[18]
  T/C: 99 % of control

## CCCCCCCCCCCCCCCC(=O)NC(CCCCN)C(=O)NC(CCCCN)C(=O)OCC (centres undefined)
[11]
  T/C: 101 % of control
[12]
  T/C: 106 % of control

## O=C(C(=O)N1CCC(O)CC1)c1c[nH]c2ccccc12
[13]
  T/C: 98 % of control
[14]
  T/C: 101 % of control
[15]
  T/C: 100 % of control

## CN(C)CCOc1ccccc1NC1=C(Cl)C(=O)C(Nc2ccccc2OCCN(C)C)=C(Cl)C1=O
dose: 3.12 mg/kg/injection, schedule: Q01DX005 (ip), vehicle: saline
  T/C: 96 % of control and 97 % of control
dose: 6.25 mg/kg/injection, schedule: Q01DX005 (ip), vehicle: saline
  T/C: 105 % of control and 106 % of control and 98 % of control
dose: 12.5 mg/kg/injection, schedule: Q01DX005 (ip), vehicle: saline
  T/C: 110 % of control and 114 % of control and 116 % of control
dose: 25.0 mg/kg/injection, schedule: Q01DX005 (ip), vehicle: saline
  T/C: 105 % of control and 117 % of control and 121 % of control

## CC(C)NCC(O)c1ccc(O)c2ncccc12 (centres undefined)
[19]
  T/C: 100 % of control
[20]
  T/C: 100 % of control
[21]
  T/C: 101 % of control

## Cn1cnc([N+](=O)[O-])c1Sc1nnc(-c2ccccc2)c(-c2ccccc2)n1
[4]
  T/C: 88 % of control
[5]
  T/C: 86 % of control
[6]
  T/C: 92 % of control

## [SeH]c1ccccc1
dose: 7.5 mg/kg/injection, schedule: Q01DX009 (ip), vehicle: saline with Tween-80
  T/C: 106 % of control
dose: 15.0 mg/kg/injection, schedule: Q01DX009 (ip), vehicle: saline with Tween-80
  T/C: 113 % of control
dose: 30.0 mg/kg/injection, schedule: Q01DX009 (ip), vehicle: saline with Tween-80
  T/C: 116 % of control

## COC/C(=N/Nc1ccc([N+](=O)[O-])cc1[N+](=O)[O-])c1ccccc1
dose: 100.0 mg/kg/injection, schedule: Q04DX003 (ip), vehicle: saline with Tween-80
  T/C: 109 % of control
dose: 200.0 mg/kg/injection, schedule: Q04DX003 (ip), vehicle: saline with Tween-80
  T/C: 109 % of control
dose: 400.0 mg/kg/injection, schedule: Q04DX003 (ip), vehicle: saline with Tween-80
  T/C: 90 % of control

## CCCCCCSc1nc2ccc(NC(C)=O)cc2s1
[13]
  T/C: 107 % of control
[14]
  T/C: 90 % of control
